Results published in PMC12396409, “Screening and hit evaluation of a microbial metabolite library against the pathogenic Plasmodium falciparum and Toxoplasma gondii parasites” (International Journal for Parasitology: Drugs and Drug …, 2025).

How the values were obtained:
[1] = tested on: P. falciparum 3D7 parasites; assay: P. falciparum growth inhibition assay, 2-cycle (120 h treatment), delayed-death screen and dose-response; type: cell-based, Plasmodium falciparum; settings: for Pf_120h_%Growth_Rep1: replicate 1; for Pf_120h_%Growth_Rep2: replicate 2
[2] = tested on: P. falciparum 3D7 parasites; assay: P. falciparum growth inhibition assay, 1-cycle (72 h treatment), SYBR DNA staining (library screen at 2 μg/mL and dose-response); type: cell-based, Plasmodium falciparum; settings: for Pf_72h_%Growth_Rep1: replicate 1; for Pf_72h_%Growth_Rep2: replicate 2
[3] = tested on: T. gondii RH strain (RH-Tub-eYFP) tachyzoites; assay: microbe, parasite or virus in culture; type: cell-based, Toxoplasma gondii; settings: 72 h; for Tg_72h_%Growth_Rep1: replicate 1; for Tg_72h_%Growth_Rep2: replicate 2
[4] = P. falciparum 3D7, 120 h, library screen at 2 μg/mL, % growth
[5] = P. falciparum 3D7, 72 h, library screen at 2 μg/mL, % growth
[6] = T. gondii RH, library screen at 2 μg/mL, % growth
[7] = P. falciparum, 120 h, screen at 2 μg/mL
[8] = P. falciparum, 72 h, screen at 2 μg/mL
[9] = P. falciparum 3D7, 120 h, parasite screen at 2 μg/mL, % growth
[10] = P. falciparum 3D7, 72 h, parasite screen at 2 μg/mL, % growth
[11] = T. gondii, parasite screen at 2 μg/mL, % growth
[12] = library screen at 2 μg/mL, 120 h, % growth
[13] = library screen at 2 μg/mL, 72 h, % growth
[14] = library screen at 2 μg/mL, % growth

CCC(C)C1OC2(CCC1C)CC1CC(CC=C(C)C(OC3CC(OC)C(OC4CC(OC)C(O)C(C)O4)C(C)O3)C(C)C=CC=C3COC4C(O)C(C)=CC(C(=O)O1)C34O)O2 (stereo not shown) [BIA-I1119]
Pf_120h_%Growth_Rep1 [1, 4]: 82.92% | Pf_120h_%Growth_Rep2 [1, 4]: 106.39% | Pf_72h_%Growth_Rep1 [2, 5]: 86.44% | Pf_72h_%Growth_Rep2 [2, 5]: 71.84% | Tg_72h_%Growth_Rep1 [3, 6]: 98.36% | Tg_72h_%Growth_Rep2 [3, 6]: 101.63%

CC1=C[C@H](C)C[C@H](C)[C@H](Cc2cnco2)OC(=O)/C(C)=C\[C@H](C)C[C@H](C)[C@H](Cc2cnco2)OC1=O [Conglobatin]
Pf_120h_%Growth_Rep1 [1, 7]: 82.43% | Pf_120h_%Growth_Rep2 [1, 7]: 72.72% | Mean ([2]; P. falciparum, 72 h, 2 μg/mL, mean of both replicates, growth (% of control)): 52.30 | Pf_72h_%Growth_Rep1 [2, 8]: 86.29% | Pf_72h_%Growth_Rep2 [2, 8]: 18.30% | Tg_72h_%Growth_Rep1 ([3]; T. gondii, screen at 2 μg/mL): 127.73% | Tg_72h_%Growth_Rep2 ([3]; T. gondii, screen at 2 μg/mL): 88.01%

Cc1cc(OC(=O)c2c(C)cc(O)cc2O)cc(O)c1C(=O)O [BIA-L1669]
Pf_120h_%Growth_Rep1 [1, 4]: 65.54% | Pf_120h_%Growth_Rep2 [1, 4]: 115.03% | Pf_72h_%Growth_Rep1 [2, 5]: 74.56% | Pf_72h_%Growth_Rep2 [2, 5]: 54.17% | Tg_72h_%Growth_Rep1 [3, 6]: 166.09% | Tg_72h_%Growth_Rep2 [3, 6]: 102.01%

CC(=O)O.CC(=O)O.CC[C@H](C)C[C@H](C)CCCCCCCCC(=O)N[C@H]1C[C@@H](O)[C@@H](NCCN)NC(=O)[C@@H]2[C@@H](O)CCN2C(=O)[C@H]([C@H](O)CCN)NC(=O)[C@H]([C@H](O)[C@@H](O)c2ccc(O)cc2)NC(=O)[C@@H]2C[C@@H](O)CN2C(=O)[C@H]([C@@H](C)O)NC1=O [Caspofungin acetate]
Pf_120h_%Growth_Rep1 [1, 7]: 148.27% | Pf_120h_%Growth_Rep2 [1, 7]: 78.66% | Pf_72h_%Growth_Rep1 [2, 8]: 37.83% | Pf_72h_%Growth_Rep2 [2, 8]: 84.89% | Tg_72h_%Growth_Rep1 ([3]; T. gondii, screen at 2 μg/mL): 95.80% | Tg_72h_%Growth_Rep2 ([3]; T. gondii, screen at 2 μg/mL): 93.96%

CC[C@H](C)C(=O)O[C@H]1CCC=C2C=C[C@H](C)[C@H](CC[C@@H]3C[C@@H](O)CC(=O)O3)[C@H]21 [BIA-M1209]
Pf_120h_%Growth_Rep1 [1, 9]: 88.69% | Pf_120h_%Growth_Rep2 [1, 9]: 112.58% | Pf_72h_%Growth_Rep1 [2, 10]: 86.39% | Pf_72h_%Growth_Rep2 [2, 10]: 121.47% | Tg_72h_%Growth_Rep1 [3, 11]: 113.16% | Tg_72h_%Growth_Rep2 [3, 11]: 83.90%

C/C=C/[C@H]1O[C@@](O)([C@@H](C)[C@H](O)[C@H](C)[C@H]2OC(=O)/C(OC)=C/C(C)=C/[C@@H](C)[C@@H](O)[C@@H](C)[C@@H](O)[C@H](C)C/C(C)=C/C=C/[C@@H]2OC)C[C@@H](O[C@H]2C[C@@H](O)[C@H](OC(N)=O)[C@@H](C)O2)[C@@H]1C [Concanamycin B]
Pf_120h_%Growth_Rep1 [1, 7]: -3.38% | Pf_120h_%Growth_Rep2 [1, 7]: 8.50% | Pf_72h_%Growth_Rep1 [2, 8]: 2.18% | Pf_72h_%Growth_Rep2 [2, 8]: 1.46% | Tg_72h_%Growth_Rep1 ([3]; T. gondii, screen at 2 μg/mL): -1.62% | Tg_72h_%Growth_Rep2 ([3]; T. gondii, screen at 2 μg/mL): 0.33%

CC(=O)O[C@@H]1[C@@H]2O[C@H]2[C@@](C)(O)C(=O)[C@@H](C)C/C=C\[C@H]2[C@H](O)C(C)=C(C)[C@H]3[C@H](Cc4ccccc4)NC(=O)[C@@]123 [Epoxycytochalasin C, 19,20-]
Pf_120h_%Growth_Rep1 [1, 12]: 4.88% | Pf_120h_%Growth_Rep2 [1, 12]: 15.35% | Pf_72h_%Growth_Rep1 [2, 13]: 3.41% | Pf_72h_%Growth_Rep2 [2, 13]: 4.96% | Tg_72h_%Growth_Rep1 [3, 14]: 1.38% | Tg_72h_%Growth_Rep2 [3, 14]: 1.44%

Amphomycin
Pf_120h_%Growth_Rep1 [1, 12]: 117.00% | Pf_120h_%Growth_Rep2 [1, 12]: 80.15% | Pf_72h_%Growth_Rep1 [2, 13]: 83.34% | Pf_72h_%Growth_Rep2 [2, 13]: 87.67% | Tg_72h_%Growth_Rep1 [3, 14]: 94.79% | Tg_72h_%Growth_Rep2 [3, 14]: 89.38%
